One block for each molecule: values may come before it.
What was measured:
[1] = molecular target: Hepatocyte growth factor receptor (Homo sapiens, UniProt P08581); experiment: Inhibition of c-Met (unknown origin)
[2] = Cytotoxicity against HUVEC assessed as inhibition of VEGF-independent growth after 72 hrs by CellTiter-Glo method; type: cell-based; settings: human, HUVEC cells
[3] = molecular target: Vascular endothelial growth factor receptor 1 (Homo sapiens, UniProt P17948); experiment: Inhibition of VEGFR-1 (unknown origin) by AlphaScreen assay
[4] = molecular target: Vascular endothelial growth factor receptor 3 (Homo sapiens, UniProt P35916); experiment: Inhibition of VEGFR-3 (unknown origin) by AlphaScreen assay
HUVEC [5] = experiment: Antiangiogenic activity in HUVEC assessed as inhibition of bFGF induced cell proliferation after 3 days by WST-1 assay; type: functional, cell-based; settings: Homo sapiens, 72 h
HUVEC [6] = experiment: Antiangiogenic activity in HUVEC assessed as inhibition of HGF induced cell proliferation after 3 days by WST-1 assay; type: functional, cell-based; settings: Homo sapiens, 72 h
HUVEC [7] = experiment: Antiangiogenic activity in HUVEC assessed as inhibition of VEGF induced cell proliferation after 3 days by WST-1 assay; type: functional, cell-based; settings: Homo sapiens, 72 h
[8] = molecular target: Vascular endothelial growth factor receptor 2 (Homo sapiens, UniProt P35968); experiment: Inhibition of VEGFR-2 autophosphorylation in HUVEC after 1 hr by Western blot analysis; type: cell-based
Vascular endothelial growth factor receptor 2, sequence (P35968 whole entry): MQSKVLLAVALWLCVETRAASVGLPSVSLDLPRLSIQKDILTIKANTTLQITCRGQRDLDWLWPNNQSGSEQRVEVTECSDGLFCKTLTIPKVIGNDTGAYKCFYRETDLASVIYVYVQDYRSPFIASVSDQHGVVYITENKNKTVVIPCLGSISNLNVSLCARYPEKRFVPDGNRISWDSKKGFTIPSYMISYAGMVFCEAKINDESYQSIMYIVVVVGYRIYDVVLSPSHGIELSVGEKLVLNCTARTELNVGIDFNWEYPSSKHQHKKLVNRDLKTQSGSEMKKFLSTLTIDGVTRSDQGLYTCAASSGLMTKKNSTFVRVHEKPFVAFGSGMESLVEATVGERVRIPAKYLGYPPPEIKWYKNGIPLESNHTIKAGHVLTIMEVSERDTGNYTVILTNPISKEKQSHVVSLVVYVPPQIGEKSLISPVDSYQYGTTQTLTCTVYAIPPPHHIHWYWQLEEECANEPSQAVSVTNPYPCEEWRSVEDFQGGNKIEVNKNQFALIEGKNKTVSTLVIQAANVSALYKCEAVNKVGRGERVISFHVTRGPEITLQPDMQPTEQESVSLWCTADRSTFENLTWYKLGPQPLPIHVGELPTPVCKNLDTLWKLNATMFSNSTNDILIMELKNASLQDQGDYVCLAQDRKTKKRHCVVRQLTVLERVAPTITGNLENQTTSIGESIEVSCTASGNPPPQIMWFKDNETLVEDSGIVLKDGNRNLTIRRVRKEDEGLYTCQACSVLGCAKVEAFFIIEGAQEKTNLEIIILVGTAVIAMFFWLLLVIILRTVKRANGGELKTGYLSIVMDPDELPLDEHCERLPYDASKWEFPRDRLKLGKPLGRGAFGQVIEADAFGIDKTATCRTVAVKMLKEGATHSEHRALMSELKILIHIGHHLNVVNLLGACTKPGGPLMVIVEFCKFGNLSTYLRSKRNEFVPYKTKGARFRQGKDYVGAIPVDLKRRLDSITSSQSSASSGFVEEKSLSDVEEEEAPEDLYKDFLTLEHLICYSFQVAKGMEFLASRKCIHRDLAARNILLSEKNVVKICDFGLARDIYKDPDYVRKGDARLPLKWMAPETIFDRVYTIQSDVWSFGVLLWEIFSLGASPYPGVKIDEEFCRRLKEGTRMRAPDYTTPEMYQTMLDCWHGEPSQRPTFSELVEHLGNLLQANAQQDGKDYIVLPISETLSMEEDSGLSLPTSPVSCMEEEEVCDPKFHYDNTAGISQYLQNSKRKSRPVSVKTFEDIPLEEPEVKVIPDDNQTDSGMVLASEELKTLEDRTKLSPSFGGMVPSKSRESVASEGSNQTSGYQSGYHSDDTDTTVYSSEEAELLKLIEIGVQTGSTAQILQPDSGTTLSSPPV

[9] = Cytotoxicity against human Hs 746T cells assessed as inhibition of tumour growth after 3 days by WST-8 assay; type: functional, cell-based; settings: Hs746T, 72 h
[10] = Cytotoxicity against human MKN45 cells assessed as inhibition of tumour growth after 3 days by WST-8 assay; type: functional, cell-based; settings: MKN-45, 72 h
[11] = Cytotoxicity against human SNU5 cells assessed as inhibition of tumour growth after 3 days by WST-8 assay; type: functional, cell-based; settings: SNU-5, 72 h
[12] = Cytotoxicity against human EBC1 cells assessed as inhibition of tumour growth after 3 days by WST-8 assay; type: functional, cell-based; settings: EBC-1, 72 h
[13] = Antitumor activity against mouse B16F10 cells implanted in naive mouse assessed as reduction in metastatic tumor burden at 100 mg/kg, po qd by Zeiss stereoscopic analysis relative to control; type: functional, B16-F10; parameters: scale not given: the % may be the effect or the level left
[14] = Antitumor activity against mouse B16F10 cells implanted in naive mouse assessed as tumour growth inhibition at 100 mg/kg, po qd by Zeiss stereoscopic analysis relative to control; type: functional; settings: B16-F10, po, read-out: TGI
[15] = Antitumor activity against mouse B16F10 cells implanted in naive mouse assessed as reduction in lung surface tumor burden at 100 mg/kg, po qd by Zeiss stereoscopic analysis relative to control; type: functional, B16-F10; parameters: scale not given: the % may be the effect or the level left
[16] = Antitumor activity against mouse B16F10 cells implanted in naive mouse assessed as reduction in metastatic tumor burden at 30 mg/kg, po qd by Zeiss stereoscopic analysis relative to control; type: functional, B16-F10; parameters: scale not given: the % may be the effect or the level left
[17] = Antitumor activity against mouse B16F10 cells implanted in naive mouse assessed as tumour growth inhibition at 30 mg/kg, po qd by Zeiss stereoscopic analysis relative to control; type: functional; settings: B16-F10, po, read-out: TGI
[18] = Antitumor activity against mouse B16F10 cells implanted in naive mouse assessed as reduction in lung surface tumor burden at 30 mg/kg, po qd by Zeiss stereoscopic analysis relative to control; type: functional, B16-F10; parameters: scale not given: the % may be the effect or the level left
[19] = molecular target: T1, Tyrosine-protein kinase receptor UFO (Homo sapiens, UniProt P30530); experiment: Inhibition of Axl (unknown origin)
T1 sequence (P30530 whole entry): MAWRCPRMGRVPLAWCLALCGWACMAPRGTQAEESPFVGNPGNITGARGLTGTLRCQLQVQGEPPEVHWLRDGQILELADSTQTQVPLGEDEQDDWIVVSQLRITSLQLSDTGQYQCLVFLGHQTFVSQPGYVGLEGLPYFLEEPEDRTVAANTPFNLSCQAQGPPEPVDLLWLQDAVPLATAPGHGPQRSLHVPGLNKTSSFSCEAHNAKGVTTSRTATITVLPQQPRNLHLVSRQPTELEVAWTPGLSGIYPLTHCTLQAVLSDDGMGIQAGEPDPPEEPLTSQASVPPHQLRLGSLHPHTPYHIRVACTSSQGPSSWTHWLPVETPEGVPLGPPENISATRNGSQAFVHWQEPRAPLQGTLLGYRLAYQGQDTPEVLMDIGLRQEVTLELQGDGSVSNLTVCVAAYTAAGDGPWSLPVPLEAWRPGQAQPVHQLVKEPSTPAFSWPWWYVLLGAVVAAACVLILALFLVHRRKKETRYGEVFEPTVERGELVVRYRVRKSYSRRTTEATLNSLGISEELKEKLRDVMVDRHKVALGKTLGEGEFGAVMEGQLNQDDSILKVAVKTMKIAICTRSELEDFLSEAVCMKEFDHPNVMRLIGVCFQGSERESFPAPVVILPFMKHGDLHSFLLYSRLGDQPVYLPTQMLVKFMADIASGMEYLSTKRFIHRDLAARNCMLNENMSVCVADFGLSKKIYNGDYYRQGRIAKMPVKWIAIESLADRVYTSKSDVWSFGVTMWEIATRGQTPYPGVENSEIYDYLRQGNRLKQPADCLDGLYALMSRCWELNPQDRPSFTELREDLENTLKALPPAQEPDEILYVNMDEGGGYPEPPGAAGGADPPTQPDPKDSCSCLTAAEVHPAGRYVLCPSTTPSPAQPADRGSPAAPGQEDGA

[20] = molecular target: Macrophage-stimulating protein receptor (Homo sapiens, UniProt Q04912); experiment: Inhibition of Ron (unknown origin)
Macrophage-stimulating protein receptor, sequence (Q04912 25-304 limits assumed): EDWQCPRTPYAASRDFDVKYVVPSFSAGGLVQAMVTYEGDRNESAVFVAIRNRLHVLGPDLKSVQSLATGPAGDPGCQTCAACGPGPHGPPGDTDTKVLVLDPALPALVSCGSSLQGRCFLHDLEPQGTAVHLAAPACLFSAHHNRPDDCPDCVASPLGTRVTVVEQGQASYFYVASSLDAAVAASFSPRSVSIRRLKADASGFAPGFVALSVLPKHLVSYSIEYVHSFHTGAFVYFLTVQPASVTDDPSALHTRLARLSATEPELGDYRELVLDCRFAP
Macrophage-stimulating protein receptor, sequence (Q04912 310-1400 limits assumed): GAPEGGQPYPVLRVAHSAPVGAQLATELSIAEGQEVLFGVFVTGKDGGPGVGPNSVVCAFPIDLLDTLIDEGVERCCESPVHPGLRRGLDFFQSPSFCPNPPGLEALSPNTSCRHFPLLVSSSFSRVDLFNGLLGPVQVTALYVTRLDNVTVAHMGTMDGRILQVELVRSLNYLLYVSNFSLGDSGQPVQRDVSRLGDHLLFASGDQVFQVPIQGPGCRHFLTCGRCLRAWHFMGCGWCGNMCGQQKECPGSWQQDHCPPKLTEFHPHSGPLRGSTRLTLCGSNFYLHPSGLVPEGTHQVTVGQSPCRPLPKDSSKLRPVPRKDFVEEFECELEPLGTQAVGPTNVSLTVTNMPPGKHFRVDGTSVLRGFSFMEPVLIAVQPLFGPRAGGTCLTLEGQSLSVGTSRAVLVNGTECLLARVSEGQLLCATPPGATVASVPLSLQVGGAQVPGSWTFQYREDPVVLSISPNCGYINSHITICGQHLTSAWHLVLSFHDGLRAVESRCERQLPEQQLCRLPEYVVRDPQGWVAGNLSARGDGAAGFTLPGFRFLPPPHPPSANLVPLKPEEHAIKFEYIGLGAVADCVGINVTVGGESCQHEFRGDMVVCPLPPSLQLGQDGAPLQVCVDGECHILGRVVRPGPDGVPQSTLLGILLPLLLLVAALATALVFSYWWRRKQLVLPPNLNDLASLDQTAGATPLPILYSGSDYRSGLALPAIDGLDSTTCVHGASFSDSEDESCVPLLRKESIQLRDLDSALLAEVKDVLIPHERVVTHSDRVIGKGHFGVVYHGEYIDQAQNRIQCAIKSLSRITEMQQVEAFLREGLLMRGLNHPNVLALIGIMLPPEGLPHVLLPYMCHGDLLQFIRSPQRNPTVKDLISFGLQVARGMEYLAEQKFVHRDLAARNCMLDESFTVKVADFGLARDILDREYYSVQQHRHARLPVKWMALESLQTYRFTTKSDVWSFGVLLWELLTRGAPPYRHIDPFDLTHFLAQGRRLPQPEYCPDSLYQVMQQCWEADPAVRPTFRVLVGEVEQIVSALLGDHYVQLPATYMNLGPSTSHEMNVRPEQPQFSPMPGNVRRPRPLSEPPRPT

[21] = molecular target: T2, Receptor-type tyrosine-protein kinase FLT3 (Homo sapiens, UniProt P36888); experiment: Inhibition of Flt-3 (unknown origin)
T2 sequence (P36888 whole entry): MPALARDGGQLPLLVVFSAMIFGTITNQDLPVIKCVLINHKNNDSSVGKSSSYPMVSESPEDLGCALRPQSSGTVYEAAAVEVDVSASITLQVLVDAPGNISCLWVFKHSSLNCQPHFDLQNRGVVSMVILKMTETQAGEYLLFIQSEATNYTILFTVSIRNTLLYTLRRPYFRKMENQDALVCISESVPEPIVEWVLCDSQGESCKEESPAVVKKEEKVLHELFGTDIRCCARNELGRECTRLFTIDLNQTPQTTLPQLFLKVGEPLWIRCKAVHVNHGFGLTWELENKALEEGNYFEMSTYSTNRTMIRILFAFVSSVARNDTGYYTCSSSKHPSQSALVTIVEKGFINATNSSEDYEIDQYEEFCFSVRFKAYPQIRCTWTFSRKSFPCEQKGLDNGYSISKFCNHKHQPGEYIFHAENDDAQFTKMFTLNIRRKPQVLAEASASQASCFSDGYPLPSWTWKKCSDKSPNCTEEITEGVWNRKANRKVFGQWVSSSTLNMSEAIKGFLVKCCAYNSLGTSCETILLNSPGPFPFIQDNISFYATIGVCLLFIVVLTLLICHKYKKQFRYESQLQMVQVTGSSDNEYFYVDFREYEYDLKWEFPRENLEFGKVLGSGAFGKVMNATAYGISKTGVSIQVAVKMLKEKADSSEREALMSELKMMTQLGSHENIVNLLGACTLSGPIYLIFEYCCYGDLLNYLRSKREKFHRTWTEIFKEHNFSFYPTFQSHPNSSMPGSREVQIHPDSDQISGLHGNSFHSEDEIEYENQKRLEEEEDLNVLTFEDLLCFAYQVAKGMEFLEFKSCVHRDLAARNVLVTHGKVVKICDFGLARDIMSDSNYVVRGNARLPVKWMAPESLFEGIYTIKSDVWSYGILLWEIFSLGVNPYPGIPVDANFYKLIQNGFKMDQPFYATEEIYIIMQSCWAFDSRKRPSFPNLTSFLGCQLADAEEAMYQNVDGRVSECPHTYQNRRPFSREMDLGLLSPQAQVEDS

Hepatocyte growth factor receptor, sequence (P08581 whole entry): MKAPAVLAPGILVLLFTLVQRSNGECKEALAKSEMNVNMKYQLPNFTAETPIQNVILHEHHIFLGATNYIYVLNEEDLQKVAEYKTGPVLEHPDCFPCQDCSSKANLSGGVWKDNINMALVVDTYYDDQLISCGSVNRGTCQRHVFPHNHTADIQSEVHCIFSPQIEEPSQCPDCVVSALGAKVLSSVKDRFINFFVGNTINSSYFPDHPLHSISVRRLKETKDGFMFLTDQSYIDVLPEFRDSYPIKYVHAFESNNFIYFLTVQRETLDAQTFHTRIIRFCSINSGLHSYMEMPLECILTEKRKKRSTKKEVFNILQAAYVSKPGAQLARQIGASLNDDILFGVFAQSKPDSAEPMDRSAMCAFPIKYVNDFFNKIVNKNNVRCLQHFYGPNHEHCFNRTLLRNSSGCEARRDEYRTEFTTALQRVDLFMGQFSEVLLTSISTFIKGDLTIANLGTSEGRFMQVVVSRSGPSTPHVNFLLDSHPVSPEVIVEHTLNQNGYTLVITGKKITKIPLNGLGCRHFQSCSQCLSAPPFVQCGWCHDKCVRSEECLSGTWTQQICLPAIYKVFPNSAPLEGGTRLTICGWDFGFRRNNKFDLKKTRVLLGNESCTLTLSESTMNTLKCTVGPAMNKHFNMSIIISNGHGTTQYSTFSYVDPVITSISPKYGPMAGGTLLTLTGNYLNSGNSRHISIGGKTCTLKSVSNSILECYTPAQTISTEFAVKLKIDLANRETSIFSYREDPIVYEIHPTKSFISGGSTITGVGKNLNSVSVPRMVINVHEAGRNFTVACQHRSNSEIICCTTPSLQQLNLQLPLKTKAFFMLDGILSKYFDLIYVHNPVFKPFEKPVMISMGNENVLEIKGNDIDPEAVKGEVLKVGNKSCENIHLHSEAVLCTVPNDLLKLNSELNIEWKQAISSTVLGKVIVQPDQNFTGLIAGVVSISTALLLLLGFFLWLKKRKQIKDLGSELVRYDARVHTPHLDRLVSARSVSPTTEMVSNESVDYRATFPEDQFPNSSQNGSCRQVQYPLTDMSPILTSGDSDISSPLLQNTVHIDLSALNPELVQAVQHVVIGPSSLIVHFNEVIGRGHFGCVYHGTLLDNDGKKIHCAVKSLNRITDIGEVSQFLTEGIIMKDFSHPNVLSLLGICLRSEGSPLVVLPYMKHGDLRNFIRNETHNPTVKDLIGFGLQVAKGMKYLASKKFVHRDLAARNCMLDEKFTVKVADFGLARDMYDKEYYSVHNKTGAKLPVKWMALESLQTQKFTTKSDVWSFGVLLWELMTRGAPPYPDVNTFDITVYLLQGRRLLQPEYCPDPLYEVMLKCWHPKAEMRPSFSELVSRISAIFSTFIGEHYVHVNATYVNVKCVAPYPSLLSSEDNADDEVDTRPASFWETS

SMILES: CN(C[C@@H]1COCCO1)S(=O)(=O)Nc1ccc2ccc3ncc(-c4cnn(C)c4)cc3c(=O)c2c1 [MK-2461]
IC50 [1]: 0.4 nM

SMILES: CNC(=O)c1cc2c(Oc3ccc(NC(=S)NC(=O)Cc4ccccc4)cc3F)ccnc2cc1OC [TAS-115]
GI50 at 72 h [2]: > 10000 nM

SMILES: Cn1cc(-c2ccc3nnc(C(F)(F)c4ccc5ncccc5c4)n3n2)cn1 [JNJ-38877605]
IC50 [1]: 4 nM

SMILES: COc1cc2c(Oc3ccc(NC(=O)C4(C(=O)Nc5ccc(F)cc5)CC4)cc3F)ccnc2cc1OCCCN1CCOCC1 [FORETINIB]
Activity [13]: 62%
inhibition in vivo at 100 mg/kg [14]: 87%
Activity [15]: 58%
Activity [16]: 31%
inhibition in vivo at 30 mg/kg [17]: 64%
Activity [18]: 50%

The next lines start with results.

IC50 [3]: 7.7 nM
IC50 [4]: 5.5 nM
SMILES: CC1=[N+](c2ccccc2)C(=O)C(C(=O)Nc2ccc(Oc3ccc4nc(NC(=O)C5CC5)cn4c3)c(F)c2)C=C1 (stereo not drawn)

Ki [1]: 355 nM
SMILES: O=C1NC(=O)[C@@H](c2cn3c4c(cccc24)CCC3)[C@@H]1c1c[nH]c2ccccc12 [TIVANTINIB]

IC50 [8]: 16 nM
SMILES: CN1CCN(C2CCN(C(=O)Nc3cc(Oc4ccc(NC(=O)C5(C(=O)Nc6ccc(F)cc6)CC5)c(F)c4)ccn3)CC2)CC1 [GOLVATINIB]
IC50 (HUVEC [5]): > 1000 nM
IC50 (HUVEC [6]): 17 nM
IC50 (HUVEC [7]): 84 nM
IC50 [9]: 23 nM
IC50 [10]: 37 nM
IC50 [11]: 24 nM
IC50 [12]: 6.2 nM

IC50 [19]: < 3 nM
IC50 [20]: < 3 nM
IC50 [21]: < 3 nM
SMILES: Nc1nccc(Oc2ccc(NC(=O)c3c[nH]cc(-c4ccc(F)cc4)c3=O)cc2F)c1Cl [BMS-794833]
